This is an account of results in ChEMBL document CHEMBL1687905, “Blockade of IL-6 secretion pathway by the sesquiterpenoid atractylenolide III” (J Nat Prod, 2011).

For series [1], the system named is HMC1. The series can be described thus: Immunomodulatory activity in human HMC1 cells assessed as inhibition of phorbol 12-myristate 13-acetate/A23187-stimulated IL1-beta secretion treated 1 hr prior to 30 mins phorbol 12-myristate 13-acetate/A23187 challenge by Western blotting analysis. The class given is functional, cell-based.
Series [2] concerns HMC1. The series can be described thus: Immunomodulatory activity in human HMC1 cells assessed as inhibition of phorbol 12-myristate 13-acetate/A23187-stimulated IL-6 mRNA expression at 1 to 100 uM treated 1 hr prior to 5 hrs phorbol 12-myristate 13-acetate/A23187 challenge by RT-PCR analysis. Type of series: functional, cell-based.
Series [3] deals with HMC1. The series can be described thus: Immunomodulatory activity in human HMC1 cells assessed as inhibition of phorbol 12-myristate 13-acetate/A23187-stimulated IL-6 secretion by ELISA method. The class given is functional, cell-based. (In general: An ELISA detects its analyte on a solid surface through an enzyme-linked reagent.)
The subject of series [4] is HMC1. The series can be described thus: Immunomodulatory activity in human HMC1 cells assessed as inhibition of phorbol 12-myristate 13-acetate/A23187-stimulated caspase 1 activation at 1 to 100 uM treated 1 hr prior to 30 mins phorbol 12-myristate 13-acetate/A23187 challenge by Western blotting analysis. The class given is functional, cell-based. (Immunoblotting shows a protein as a band on a membrane.)

The test system of series [5] is HMC1. The series can be described thus: Immunomodulatory activity in human HMC1 cells assessed as inhibition of phorbol 12-myristate 13-acetate/A23187-stimulated IL1-beta secretion at 1 to 100 uM treated 1 hr prior to 30 mins phorbol 12-myristate 13-acetate/A23187 challenge by Western blotting analysis. The class given is functional, cell-based.
Series [6] has as its system HMC1. The series can be described thus: Immunomodulatory activity in human HMC1 cells assessed as inhibition of phorbol 12-myristate 13-acetate/A23187-stimulated p38 phosphorylation at 1 to 100 uM treated 1 hr prior to 30 mic phorbol 12-myristate 13-acetate/A23187 challenge. The class given is functional, cell-based.
Series [7] has as its system HMC1. The series can be described thus: Immunomodulatory activity in human HMC1 cells assessed as inhibition of phorbol 12-myristate 13-acetate/A23187-stimulated histamine secretion at 100 uM treated 1 hr prior to 6 hrs phorbol 12-myristate 13-acetate/A23187 challenge by histamine assay kit. Type of series: functional, cell-based.
The test system of series [8] is HMC1. The series can be described thus: Suppression of NF-kappaB activation in human HMC1 cells assessed as inhibition of phorbol 12-myristate 13-acetate/A23187-stimulated IkappaB-alpha degradation at 1 to 100 uM treated 1 hr prior to 2 hrs phorbol 12-myristate 13-acetate/A23187 challenge by Western blotting analysis. The class given is cell-based.
The test system of series [9] is HMC1. The series can be described thus: Immunomodulatory activity in human HMC1 cells assessed as inhibition of phorbol 12-myristate 13-acetate/A23187-stimulated caspase 1 activation at 1 to 100 uM treated 1 hr prior to 30 mins phorbol 12-myristate 13-acetate/A23187 challenge by caspase colorimetric assay. The class given is functional, cell-based.
Series [10] is described as follows: Cytotoxicity against human HMC1 cells assessed as cell viability at 1 to 100 uM after 8 hrs by MTT colorimetric assay. The class given is cell-based. The note with it: hmc1, 8 h. A general note: Tetrazolium dyes change colour on reduction, which living cells bring about.
The test system of series [11] is HMC1. The series can be described thus: Suppression of NF-kappaB activation in human HMC1 cells assessed as inhibition of phorbol 12-myristate 13-acetate/A23187-stimulated luciferase activity at 1 to 100 uM treated 1 hr prior to 24 hrs phorbol 12-myristate 13-acetate/A23187 challenge by luciferase reporter gene assay. The class given is cell-based.
The test system of series [12] is HMC1. The series can be described thus: Immunomodulatory activity in human HMC1 cells assessed as inhibition of phorbol 12-myristate 13-acetate/A23187-stimulated ERK phosphorylation at 1 to 100 uM treated 1 hr prior to 30 mins phorbol 12-myristate 13-acetate/A23187 challenge. The class given is functional, cell-based.
Series [13] deals with HMC1. The series can be described thus: Immunomodulatory activity in human HMC1 cells assessed as inhibition of phorbol 12-myristate 13-acetate/A23187-stimulated RIP-2 activation at 1 to 100 uM treated 1 hr prior to 30 mins phorbol 12-myristate 13-acetate/A23187 challenge by Western blotting analysis. The class given is functional, cell-based.
The test system of series [14] is HMC1. The series can be described thus: Suppression of NF-kappaB activation in human HMC1 cells assessed as inhibition of phorbol 12-myristate 13-acetate/A23187-stimulated nuclear Rel A/p65 level at 1 to 100 uM treated 1 hr prior to 2 hrs phorbol 12-myristate 13-acetate/A23187 challenge by Western blotting analysis. Type of series: cell-based.
Series [15] deals with HMC1. The series can be described thus: Immunomodulatory activity in human HMC1 cells assessed as inhibition of phorbol 12-myristate 13-acetate/A23187-stimulated JNK phosphorylation at 1 to 100 uM treated 1 hr prior to 30 mic phorbol 12-myristate 13-acetate/A23187 challenge. Type of series: functional, cell-based.

Active and inactive are the calls of the source. The rule behind the calls is not given here.

`C[C@@H]1C[C@H]2[C@@H]3CCC4=CC(=O)C=C[C@]4(C)[C@@]3(F)[C@@H](O)C[C@]2(C)[C@@]1(O)C(=O)CO`: the inhibition entry in the series on HMC1 [1] was “Active”.
Turning to `C=C1CCC[C@]2(C)C[C@]3(O)OC(=O)C(C)=C3C[C@@H]12` [ATRACTYLENOLIDE III], the inhibition entry in the series on HMC1 [2], with HMC1 [5], with HMC1 [6], in the series with HMC1 [7], with HMC1 [8] and in the series on HMC1 [9] was “Active” each time. For the same compound, the inhibition result in the series with HMC1 [11], with HMC1 [14] and in the series on HMC1 [15] was “Active” throughout. In addition, the inhibition result in the series on HMC1 [3], in the series with HMC1 [4] and with HMC1 [13] was “Dose-dependent effect” each time. Further, the Activity entry in [10] is “Non-toxic”. Besides, the inhibition entry with HMC1 [12] was “inactive”.
